According to patent publication US12662469B2 (SIRONAX LTD, priority 2018, dated 2026):

test system: Cell Necrosis; assay: Cell necrosis assay / cell viability assay (necrosis inhibitor activity); assay type: cell-based; conditions: not given

Row | Compound | activity based on the cell activity assay
1 | O=C1COc2cc(F)c(OC3CN(C(=O)N4N=CC[C@H]4c4ccccc4)C3)cc2N1 [Compound 192, (S)-7-fluoro-6-((1-(5-phenyl-4,5-dihydro-1H-pyrazole-1-carbonyl)azetidin-3-yl)oxy)-2H-benzo[b][1,4]oxazin-3(4H)-one] | potent activity

same assay, conditions: necrosis inhibitor activity; EC data for 14-191 extrapolated; read-out: EC50

Row | Compound | EC50
2 | O=C(N1CC(Oc2ccc(F)cc2)C1)N1N=CC[C@H]1c1cc(F)cc(F)c1 [Compound 143] | 1 to 1000 nM
3 | O=C(N1CC(Oc2ccc3ccc(=O)[nH]c3c2)C1)N1N=CCC1c1cc(F)cc(F)c1 (stereo not drawn) [Compound 181] | 1 to 1000 nM
4 | CNC(=O)c1ccc(OC2CN(C(=O)N3N=CCC3c3cc(F)cc(F)c3)C2)cc1 (stereo not drawn) [Compound 165] | 1 to 1000 nM
5 | COc1cccc(CC2CN(C(=O)N3N=CCC3c3ccccc3)C2)c1 (stereo not drawn) [Compound 39, (3-(3-methoxybenzyl)azetidin-1-yl)(5-phenyl-4,5-dihydro-1H-pyrazol-1-yl) methanone] | 1 to 1000 nM
6 | O=C(N1CC[C@@H](Oc2cccc(F)c2)C1)N1N=CCC1c1ccccc1 (stereo partly drawn) [Compound 32, ((R)-3-(3-fluorophenoxy)pyrrolidin-1-yl)(5-phenyl-4,5-dihydro-1H-pyrazol-1-yl)methanone] | 1 to 1000 nM
7 | NC(=O)c1cc(OC2CN(C(=O)N3N=CCC3c3cc(F)cc(F)c3)C2)ccc1Cl (stereo not drawn) [Compound 158] | 1 to 1000 nM
8 | N#Cc1cccc(OC2CN(C(=O)N3N=CCC3c3cc(F)cc(F)c3)C2)c1 (stereo not drawn) [Compound 71, 3-((1-(5-(3,5-difluorophenyl)-4,5-dihydro-1H-pyrazole-1-carbonyl)azetidin-3-yl)oxy)benzonitrile] | 1 to 1000 nM
9 | O=C(N1CCN(c2nccc(O)n2)CC1)N1N=CCC1c1ccccc1 (stereo not drawn) [Compound 103, (4-(4-hydroxypyrimidin-2-yl)piperazin-1-yl)(5-phenyl-4,5-dihydro-1H-pyrazol-1-yl)methanone] | 1000 to 10000 nM
10 | NC(=O)c1ccc(OC2CN(C(=O)N3N=CCC3c3cc(F)cc(F)c3)C2)cc1F (stereo not drawn) [Compound 155] | 1 to 1000 nM
11 | Cc1cnc(N2CCN(C(=O)N3N=CCC3c3ccccc3)CC2)nc1 (stereo not drawn) [Compound 87, (4-(5-methylpyrimidin-2-yl)piperazin-1-yl)(5-phenyl-4,5-dihydro-1H-pyrazol-1-yl)methanone] | 1 to 1000 nM
12 | O=C(N1CC(Cc2ccc(F)cc2F)C1)N1N=CCC1c1cccc(F)c1 (stereo not drawn) [Compound 53, (3-(2,4-difluorobenzyl)azetidin-1-yl)(5-(3-fluorophenyl)-4,5-dihydro-1H-pyrazol-1-yl)methanone] | 1 to 1000 nM
13 | O=C(NC1CCN(c2ccc(F)cn2)C1)N1N=CCC1c1ccccc1 (stereo not drawn) [Compound 23, N-(1-(5-fluoropyridin-2-yl)pyrrolidin-3-yl)-5-phenyl-4,5-dihydro-1H-pyrazole-1-carboxamide] | 1 to 1000 nM
14 | O=C(N1CCCN(c2ncc(F)cn2)CC1)N1N=CCC1c1ccccc1 (stereo not drawn) [Compound 96, (4-(5-fluoropyrimidin-2-yl)-1,4-diazepan-1-yl)(5-phenyl-4,5-dihydro-1H-pyrazol-1-yl)methanone] | 1000 to 10000 nM
15 | O=C(N1CC(=Cc2ccc(F)cc2F)C1)N1N=CCC1c1cc(F)cc(F)c1 (stereo not drawn) [Compound 55, (3-(2,4-difluorobenzylidene)azetidin-1-yl)(5-(3,5-difluorophenyl)-4,5-dihydro-1H-pyrazol-1-yl)methanone] | 1 to 1000 nM
16 | O=C(N1CCN(c2ncc(F)cn2)CC1)N1N=CCC1c1ccccc1 (stereo not drawn) [Compound 83, (4-(5-fluoropyrimidin-2-yl)piperazin-1-yl)(5-phenyl-4,5-dihydro-1H-pyrazol-1-yl)methanone] | 1 to 1000 nM
17 | O=C(N1CC(Oc2ccc(F)cc2)C1)N1N=CCC1c1ccccc1 (stereo not drawn) [Compound 62, (3-(4-fluorophenoxy)azetidin-1-yl)(5-phenyl-4,5-dihydro-1H-pyrazol-1-yl)methanone] | 1 to 1000 nM
18 | O=C(N1CC(Oc2cnccn2)C1)N1N=CCC1c1ccccc1 (stereo not drawn) [Compound 119, (5-phenyl-4,5-dihydro-1H-pyrazol-1-yl)(3-(pyrazin-2-yloxy)azetidin-1-yl)methanone] | 1 to 1000 nM

same assay, conditions: necrosis inhibitor activity; compounds outside 14-191; read-out: EC50

Row | Compound | EC50
19 | CCC1Oc2cc(F)c(OC3CN(C(=O)N4N=CC[C@H]4c4cc(F)cc(F)c4)C3)cc2NC1=O (stereo partly drawn) [Compound 250, 6-((1-((S)-5-(3,5-difluorophenyl)-4,5-dihydro-1H-pyrazole-1-carbonyl)azetidin-3-yl)oxy)-2-ethyl-7-fluoro-2H-benzo[b][1,4]oxazin-3(4H)-one] | 1 to 1000 nM
20 | O=C(N1CC(=Cc2ccc(F)cc2)C1)N1N=CCC1c1cc(F)cc(F)c1 (stereo not drawn) [Compound 306, (5-(3,5-difluorophenyl)-4,5-dihydro-1H-pyrazol-1-yl)(3-(4-fluorobenzylidene)azetidin-1-yl)methanone] | 1 to 1000 nM
21 | CC1Oc2cc(F)c(OC3CN(C(=O)N4N=CC[C@H]4c4cc(F)cc(F)c4)C3)cc2NC1=O (stereo partly drawn) [Compound 350, 6-((1-((S)-5-(3,5-difluorophenyl)-4,5-dihydro-1H-pyrazole-1-carbonyl)azetidin-3-yl)oxy)-7-fluoro-2-methyl-2H-benzo[b][1,4]oxazin-3(4H)-one] | 1 to 1000 nM
22 | O=C(NC1CCCC1)N1N=CCC1c1ccccc1 (stereo not drawn) [Compound 5, N-cyclopentyl-5-phenyl-4,5-dihydro-1H-pyrazole-1-carboxamide] | 1 to 1000 nM
23 | O=C(N1CC(Oc2nc(NCCO)ccc2F)C1)N1N=CC[C@H]1c1cc(F)cc(F)c1 [Compound 252, (S)(5-(3,5-difluorophenyl)-4,5-dihydro-1H-pyrazol-1-yl)(3-((3-fluoro-6-((2-hydroxyethyl)amino)pyridin-2-yl)oxy)azetidin-1-yl)methanone] | 1 to 1000 nM
24 | N#Cc1cncc([C@@H]2CC=NN2C(=O)N2CC(Oc3cc4c(cc3F)OCC(=O)N4)C2)c1 [Compound 197, (S)-5-(1(3-((7-fluoro-3-oxo-3,4-dihydro-2H-benzo[b][1,4]oxazin-6-yl)oxy)azetidine-1-carbonyl)-4,5-dihydro-1H-pyrazol-5-yl)nicotinonitrile] | 1 to 1000 nM
25 | N#Cc1nccc(O[C@@H]2CCN(C(=O)N3N=CC[C@H]3c3cc(F)cc(F)c3)C2)n1 [Compound 362, 4-(((R)-1-((S)-5-(3,5-difluorophenyl)-4,5-dihydro-1H-pyrazole-1-carbonyl)pyrrolidin-3-yl)oxy)pyrimidine-2-carbonitrile] | 1 to 1000 nM
26 | NC(=O)c1cnc2ccc(O[C@@H]3CCN(C(=O)N4N=CC[C@H]4c4cc(F)cc(F)c4)C3)nn12 [Compound 241, 6-(((R)-1-((S)-5-(3,5-difluorophenyl)-4,5-dihydro-1H-pyrazole-1-carbonyl)pyrrolidin-3-yl)oxy)imidazo[1,2-b]pyridazine-3-carboxamide] | 1 to 1000 nM
27 | NC(=O)c1ccc(C=C2CN(C(=O)N3N=CC[C@H]3c3cc(F)cc(F)c3)C2)cn1 [Compound 295, (S)-5-((1-(5-(3,5-difluorophenyl)-4,5-dihydro-1H-pyrazole-1-carbonyl)azetidin-3-ylidene)methyl)picolinamide] | 1 to 1000 nM
28 | O=C(N1CC(=Cc2ccn3nccc3c2)C1)N1N=CC[C@H]1c1cc(F)cc(F)c1 [Compound 288, (S)-(5-(3,5-difluorophenyl)-4,5-dihydro-1H-pyrazol-1-yl)(3-(pyrazolo[1,5-a]pyridin-5-ylmethylene)azetidin-1-yl)methanone] | 1 to 1000 nM
29 | O=C(N1CCN(c2ncc3cc[nH]c3n2)CC1)N1N=CC[C@H]1c1cc(F)cc(F)c1 [Compound 279, (S)-(4-(7H-pyrrolo[2,3-d]pyrimidin-2-yl)piperazin-1-yl)(5-(3,5-difluorophenyl)-4,5-dihydro-1H-pyrazol-1-yl)methanone] | 1 to 1000 nM
30 | O=C1COc2cc(F)c(OC3CN(C(=O)N4N=CC[C@H]4c4ccccc4)C3)cc2N1 [Compound 192, (S)-7-fluoro-6-((1-(5-phenyl-4,5-dihydro-1H-pyrazole-1-carbonyl)azetidin-3-yl)oxy)-2H-benzo[b][1,4]oxazin-3(4H)-one] | 1 to 1000 nM
31 | NC(=O)c1cnc(OC2CN(C(=O)N3N=CC[C@H]3c3cc(F)cc(F)c3)C2)s1 [Compound 280, (S)-2-((1-(5-(3,5-difluorophenyl)-4,5-dihydro-1H-pyrazole-1-carbonyl)azetidin-3-yl)oxy)thiazole-5-carboxamide] | 1 to 1000 nM
32 | CC1Oc2ccc(OC3CN(C(=O)N4N=CC[C@H]4c4cc(F)cc(C#N)c4)C3)cc2NC1=O (stereo partly drawn) [Compound 354, 3-fluoro-5-((5S)-1-(3-((2-methyl-3-oxo-3,4-dihydro-2H-benzo[b][1,4]oxazin-6-yl)oxy)azetidine-1-carbonyl)-4,5-dihydro-1H-pyrazol-5-yl)benzonitrile] | 1 to 1000 nM
33 | N#Cc1ccc(F)c(C=C2CN(C(=O)N3N=CC[C@H]3c3cc(F)cc(F)c3)C2)c1 [Compound 319, (S)-3-((1-(5-(3,5-difluorophenyl)-4,5-dihydro-1H-pyrazole-1-carbonyl)azetidin-3-ylidene)methyl)-4-fluorobenzonitrile] | 1 to 1000 nM
34 | N#Cc1ccc(O[C@@H]2CCN(C(=O)N3N=CC[C@H]3c3cc(F)cc(F)c3)C2)c(Cl)n1 [Compound 365, 6-chloro-5-(((R)-1-((S)-5-(3,5-difluorophenyl)-4,5-dihydro-1H-pyrazole-1-carbonyl)pyrrolidin-3-yl)oxy)picolinonitrile] | 1 to 1000 nM
35 | N#Cc1ccc(C=C2CN(C(=O)N3N=CC[C@H]3c3cc(F)cc(F)c3)C2)c(F)n1 [Compound 323, (S)-5-((1-(5-(3,5-difluorophenyl)-4,5-dihydro-1H-pyrazole-1-carbonyl)azetidin-3-ylidene)methyl)-6-fluoropicolinonitrile] | 1 to 1000 nM
36 | COC(=O)c1cc2sc(OC3CN(C(=O)N4N=CC[C@H]4c4cc(F)cc(F)c4)C3)nc2[nH]1 [Compound 257, methyl (S)-2-((1-(5-(3,5-difluorophenyl)-4,5-dihydro-1H-pyrazole-1-carbonyl)azetidin-3-yl)oxy)-4H-pyrrolo[2,3-d]thiazole-5-carboxylate] | 1 to 1000 nM
37 | N#Cc1ccnc(OC2CN(C(=O)N3N=CC[C@H]3c3cc(F)cc(F)c3)C2)n1 [Compound 264, (S)-2-((1-(5-(3,5-difluorophenyl)-4,5-dihydro-1H-pyrazole-1-carbonyl)azetidin-3-yd)oxy)pyrimidine-4-carbonitrile] | 1 to 1000 nM
38 | O=C(N1CC(Oc2ccc3ccc(=O)[nH]c3c2F)C1)N1N=CC[C@H]1c1cc(F)cc(F)c1 [Compound 208, (S)-7-((1(5-(3,5-difluorophenyl)-4,5-dihydro-1H-pyrazole-1-carbonyl)azetidin-3-yl)oxy)-8-fluoroquinolin-2(1H)-one] | 1 to 1000 nM
39 | N#Cc1ccnc(N2CCN(C(=O)N3N=CC[C@H]3c3cc(F)cc(F)c3)CC2)c1 [Compound 232, (S)-2-(4-(5-(3,5-difluorophenyl)-4,5-dihydro-1H-pyrazole-1-carbonyl)piperazin-1-yl)isonicotinonitrile] | 1 to 1000 nM
